This is an account of results in patent US10160747B2, “Compounds and methods for kinase modulation, and indications therefor” (Plexxikon Inc., priority 2016, dated 2018).

For assay [1], the system named is MOLM-14 D835Y (endogenous FLT3 ITD and transfected FLT3 D835Y). The assay can be described thus: MOLM-14 D835Y cell proliferation assay (CellTiter-Glo). Type of assay: cell-based. The settings on record: Homo sapiens, MOLM-14, 72 h; 3 d growth, GMean. The source says: (§1) The FLT3 inhibitors may be assessed using the MOLM-14, Acute Myeloid Leukemia cell line that endogenously expresses FLT3 ITD or derivatives of the human FLT3 AML cell line which acquired the D835Y (activation loop) of F691L (gatekeeper) mutation after selection in escalating doses of the FLT3 Inhibitor AC220. FLT3 inhibitors may also be assessed using cells that are engineered to express mutant FLT3. For engineered cells, murine Ba/F3 cells were transfected with full-length FLT3 ITD/D835Y mutations. The parental BA/F3 cells are dependent upon Interleukin-3 (IL-3) for survival, and introduction of the FLT3 constructs rendered these cells dependent upon FLT3 kinase activity when cultured in the absences of IL-3. Engineered BA/F3 cell growth assays can be performed in either the […] of IL-3, to assess the compound inhibition of FLT3 or to detect the presence of off-target activity, respectively. Inhibitors of FLT3 kinase activity reduce or eliminate the FLT3 oncogenic signaling, resulting in reduced cell proliferation. This inhibition is measured as a function of compound concentration to assess IC50 values.
(§2) Cell lines used in proliferation assays are as follows in Table 2:
(§3) Cells were seeded at 1×10^4 cells per well of a 96 well cell culture plate in 50 μl of cell culture medium. Compounds were dissolved in DMSO, typically at a concentration of 0.5 mM and were serially diluted 1:3 for a total of eight points and added to the cells to final concentrations of […], 0.0041, 0.0014 and 0.00046 μM in 100 μl cell culture medium (final concentration 0.2% DMSO). […] The cells were incubated at 37° C., 5% CO2 for three days. CellTiter-Glo Buffer (Promega Cell Viability Assay catalog #G7573) and substrate were equilibrated to room temperature, and enzyme/substrate Recombinant Firefly Luciferase/Beetle Luciferin was reconstituted. The cell plates were equilibrated to room temperature for 30 minutes, then lysed by addition of an equivalent volume of the Celltiter-Glo Reagent. The plate was mixed for 10 minutes on a plate shaker to lyse the cells. The plates were read on a Tecan M1000 using Luminescence protocol modified to read 0.1 s per well. The luminescence reading assesses the ATP content, which correlates directly with cell number such that the reading as a function of compound concentration was used to determine the IC50 value.
(Cellular ATP, detected with luciferase, serves as a proxy for viable cell number.)

In assay [2] the test system is MOLM-14 F691L (endogenous FLT3 ITD and transfected FLT3 F691L). The assay can be described thus: MOLM-14 F691L cell proliferation assay (CellTiter-Glo). Type of assay: cell-based. Particulars: Homo sapiens, MOLM-14, 72 h; 3 d growth, GMean.
Source text: as §1, §2, §3

For assay [3], the target named is T1, BA/F3-FLT3-ITD + D835Y (Homo sapiens, UniProt P36888, D835Y, cells depend on it, form not given).
T1 sequence (P36888 with tags, fused parts or gaps INS600HVDFREYEYD/D835Y): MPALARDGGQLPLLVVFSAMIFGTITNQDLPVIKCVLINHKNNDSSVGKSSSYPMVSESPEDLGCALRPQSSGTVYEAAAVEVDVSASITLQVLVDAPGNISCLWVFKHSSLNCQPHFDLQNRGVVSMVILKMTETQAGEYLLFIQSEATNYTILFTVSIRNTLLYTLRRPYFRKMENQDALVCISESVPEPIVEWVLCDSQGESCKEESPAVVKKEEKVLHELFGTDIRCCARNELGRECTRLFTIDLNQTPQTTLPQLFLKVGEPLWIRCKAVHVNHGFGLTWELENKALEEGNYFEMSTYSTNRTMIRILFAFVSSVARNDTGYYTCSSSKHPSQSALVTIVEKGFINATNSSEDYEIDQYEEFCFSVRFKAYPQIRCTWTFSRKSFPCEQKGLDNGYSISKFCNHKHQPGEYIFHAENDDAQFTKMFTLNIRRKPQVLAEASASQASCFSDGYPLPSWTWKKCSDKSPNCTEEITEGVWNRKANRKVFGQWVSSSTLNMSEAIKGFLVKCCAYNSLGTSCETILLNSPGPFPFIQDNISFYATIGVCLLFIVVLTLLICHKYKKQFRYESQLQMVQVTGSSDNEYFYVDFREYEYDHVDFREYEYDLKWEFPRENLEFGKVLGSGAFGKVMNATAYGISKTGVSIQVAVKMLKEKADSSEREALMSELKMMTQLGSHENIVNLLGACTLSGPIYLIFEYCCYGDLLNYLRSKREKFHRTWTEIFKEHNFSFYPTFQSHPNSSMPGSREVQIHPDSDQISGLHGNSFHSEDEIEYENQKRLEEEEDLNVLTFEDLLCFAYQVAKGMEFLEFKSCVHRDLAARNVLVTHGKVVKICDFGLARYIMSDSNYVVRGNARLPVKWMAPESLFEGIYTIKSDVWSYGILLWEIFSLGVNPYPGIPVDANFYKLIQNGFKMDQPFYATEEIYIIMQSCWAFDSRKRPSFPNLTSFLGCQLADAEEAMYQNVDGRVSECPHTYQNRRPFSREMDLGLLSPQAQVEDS
Briefly: Engineered BA/F3 cell growth assay, FLT3 ITD/D835Y. The format is cell-based, murine. The settings on record: 3 d growth.
Source text: as §1, §2, §3
The BaF3 assays as developed used to generate the data in Tables 7 and 8 are identical and differ only in minor details in regards to vector design, not biological function. Both introduce the FLT3 gene with MV4-11 based ITD duplications and resistance mutations from an exogenous promoter (MSCV and CMV respectively) in the exact same cell line.
As a result of the expressed FLT3 protein, the IL3 factor dependent BaF3 cell clones become IL3-factor independent.
The compounds in Tables 7 and 8 were tested in an identical fashion by incubating such clones in with increasing concentrations. Inhibition of the FLT3 activity by an inhibitor results in factor dependency, which in the absence of IL3 results in cell death in the three day growth assays.

Each structure is given as a SMILES string.

With `COCC#Cc1cc2cc(-c3ccc(CC(=O)Nc4cnc(OC)c(C(F)(F)F)c4)cc3)cnc2[nH]1` [Compound P-0056, 2-[4-[2-(3-methoxyprop-1-ynyl)-1H-pyrrolo[2,3-b]pyridin-5-yl]phenyl]-N-[6-methoxy-5-(trifluoromethyl)-3-pyridyl]acetamide], the IC50 in assay [1] and in assay [2] was 0.0001 to 10 µM each time. Further, the 50% growth inhibitory concentration (GI50) in assay [3] fell in the range of 0.0001 to 10 µM.

For `Cn1cc(Nc2ncc(-c3ccc(CC(=O)NCc4cccc(C(F)(F)F)c4)cc3)cn2)cn1` [Compound P-0128, 2-[4-[2-[(1-methylpyrazol-4-yl)amino]pyrimidin-5-yl]phenyl]-N-[[3-(trifluoromethyl)phenyl]methyl]acetamide], the IC50 in assay [1] and in assay [2] was 0.0001 to 10 µM in each case. Besides, in assay [3], the GI50 lay in the range of 0.0001 to 10 µM.

For the compound `COc1ncc(NC(=O)Cc2ccc(-c3cnc4[nH]c(-c5ccnc(C#N)c5)cc4c3)nc2)cc1C(F)(F)F` [Compound P-0006, 2-[6-[2-(2-cyano-4-pyridyl)-1H-pyrrolo[2,3-b]pyridin-5-yl]-3-pyridyl]-N-[6-methoxy-5-(trifluoromethyl)-3-pyridyl]acetamide], the IC50 in assay [1] and in assay [2] was 0.0001 to 10 µM each time. Moreover, the GI50 in assay [3] fell in the range of 0.0001 to 10 µM.

`CC(C)(C#N)c1ccc(NC(=O)Cc2ccc(-c3cnc4[nH]cc(F)c4c3)cc2F)cn1` [Compound P-0042, N-(6-(2-cyanopropan-2-yl)pyridin-3-yl)-2-(2-fluoro-4-(3-fluoro-1H-pyrrolo[2,3-b]pyridin-5-yl)phenyl)acetamide]: the concentration for half-maximal inhibition (IC50) in assay [1] and in assay [2] was 0.0001 to 10 µM in each case. In assay [3], the GI50 lay in the range of 0.0001 to 10 µM.

For the compound `Cn1cc(Nc2ncc(-c3ccc(CC(=O)NCc4ccc(F)cc4Cl)cc3)cn2)cn1` [Compound P-0125, N-[(2-chloro-4-fluoro-phenyl)methyl]-2-[4-[2-[(1-methylpyrazol-4-yl)amino]pyrimidin-5-yl]phenyl]acetamide], the IC50 in assay [1] and in assay [2] was 0.0001 to 10 µM in each case. Moreover, in assay [3], the 50% growth inhibitory concentration (GI50) was 0.0001 to 10 µM.

Consider `COc1cc(-c2cc3cc(-c4cc(F)c(CC(=O)Nc5cc(C(F)(F)F)ccn5)cc4F)cnc3[nH]2)ccn1` [Compound P-0189, 2-[2,5-difluoro-4-[2-(2-methoxy-4-pyridyl)-1H-pyrrolo[2,3-b]pyridin-5-yl]phenyl]-N-[4-(trifluoromethyl)-2-pyridyl]acetamide], for which the IC50 in assay [1] and in assay [2] was 0.0001 to 10 µM in each case. Also, in assay [3], the GI50 lay in the range of 0.0001 to 10 µM.

On to `Cn1cc(Nc2ncc(-c3ccc(CC(=O)NCc4c(F)cccc4Cl)cc3)cn2)cn1` [Compound P-0127, N-[(2-chloro-6-fluoro-phenyl)methyl]-2-[4-[2-[(1-methylpyrazol-4-yl)amino]pyrimidin-5-yl]phenyl]acetamide], for which the IC50 in assay [1] and in assay [2] was 0.0001 to 10 µM each time. For the same compound, the GI50 in assay [3] lay in the range of 0.0001 to 10 µM.

Turning to `Cn1cc(Nc2ncc(-c3ccc(CC(=O)Nc4ccnc(C(C)(C)C)c4)cc3)cn2)cn1` [Compound P-0112, N-(2-tert-butyl-4-pyridyl)-2-[4-[2-[(1-methylpyrazol-4-yl)amino]pyrimidin-5-yl]phenyl]acetamide], the IC50 in assay [1] and in assay [2] was 0.0001 to 10 µM in each case. Besides, the GI50 in assay [3] was in the range of 0.0001 to 10 µM.

Regarding `COc1ncc(NC(=O)Cc2cc(F)c(-c3cnc(Nc4cn[nH]c4)nc3)cc2F)cc1C(F)(F)F` [Compound P-0226, 2-[2,5-difluoro-4-[2-(1H-pyrazol-4-ylamino)pyrimidin-5-yl]phenyl]-N-[6-methoxy-5-(trifluoromethyl)-3-pyridyl]acetamide], the half-maximal inhibitory concentration (IC50) in assay [1] and in assay [2] was 0.0001 to 10 µM in each case. Moreover, the GI50 in assay [3] was in the range of 0.0001 to 10 µM.

In the case of `O=C(Cc1ccc(-c2cnc3[nH]c(Cl)cc3c2)cc1F)Nc1ccc(C(F)(F)F)cn1` [Compound P-0041, 2-[4-(2-chloro-1H-pyrrolo[2,3-b]pyridin-5-yl)-2-fluoro-phenyl]-N-[5-(trifluoromethyl)-2-pyridyl]acetamide], the GI50 in assay [3] lay in the range of 0.0001 to 10 µM.

In the case of `O=C(Cc1ccc(-c2cnc3[nH]c(-c4ccnc(N5CCOCC5)c4)cc3c2)nc1)Nc1ccnc(C(F)(F)F)c1` [Compound P-0069, 2-[6-[2-(2-morpholino-4-pyridyl)-1H-pyrrolo[2,3-b]pyridin-5-yl]-3-pyridyl]-N-[2-(trifluoromethyl)-4-pyridyl]acetamide], in assay [1], the IC50 was in the range of 0.0001 to 10 µM. The GI50 in assay [3] is 0.0001 to 10 µM.

Take `COc1cc(-c2cc3cc(-c4ccc(CC(=O)Nc5ccnc(C(F)(F)F)c5)cn4)cnc3[nH]2)ccn1` [Compound P-0186, 2-[6-[2-(2-methoxy-4-pyridyl)-1H-pyrrolo[2,3-b]pyridin-5-yl]-3-pyridyl]-N-[2-(trifluoromethyl)-4-pyridyl]acetamide]: the IC50 in assay [1] lay in the range of 0.0001 to 10 µM. Also, in assay [3], the GI50 was 0.0001 to 10 µM.

In the case of `N#Cc1cc(-c2cc3cc(-c4ccc(CC(=O)Nc5ccnc(C(F)(F)F)c5)cn4)cnc3[nH]2)ccn1` [Compound P-0185, 2-[6-[2-(2-cyano-4-pyridyl)-1H-pyrrolo[2,3-b]pyridin-5-yl]-3-pyridyl]-N-[2-(trifluoromethyl)-4-pyridyl]acetamide], in assay [3], the GI50 is 0.0001 to 10 µM.

Take `Cn1cc(Nc2ncc(-c3ccc(CC(=O)NCc4ccc(Cl)cn4)cc3)cn2)cn1` [Compound P-0114, N-[(5-chloro-2-pyridyl)methyl]-2-[4-[2-[(1-methylpyrazol-4-yl)amino]pyrimidin-5-yl]phenyl]acetamide]: the IC50 in assay [2] was in the range of 0.0001 to 10 µM. Moreover, in assay [3], the GI50 was 0.0001 to 10 µM.

In turn, `N#Cc1ccc(-c2cc3cc(-c4ccc(CC(=O)Nc5ccnc(C(F)(F)F)c5)nc4)cnc3[nH]2)cn1` [Compound P-0184, 2-[5-[2-(6-cyano-3-pyridyl)-1H-pyrrolo[2,3-b]pyridin-5-yl]-2-pyridyl]-N-[2-(trifluoromethyl)-4-pyridyl]acetamide] registered an IC50 in assay [2] of 0.0001 to 10 µM. In addition, the concentration for 50% growth inhibition (GI50) in assay [3] fell in the range of 0.0001 to 10 µM.

Regarding `N#Cc1cc(-c2cc3cc(-c4cc(F)c(CC(=O)Nc5cc(C(F)(F)F)ccn5)cc4F)cnc3[nH]2)ccn1` [Compound P-0188, 2-[4-[2-(2-cyano-4-pyridyl)-1H-pyrrolo[2,3-b]pyridin-5-yl]-2,5-difluoro-phenyl]-N-[4-(trifluoromethyl)-2-pyridyl]acetamide], the IC50 in assay [1] fell in the range of 0.0001 to 10 µM. Further, the concentration for 50% growth inhibition (GI50) in assay [3] was in the range of 0.0001 to 10 µM.

By IC50 is commonly meant the midpoint of a concentration-inhibition curve. A lower IC50 goes with greater potency. A word on the GI50: it is the concentration that inhibits growth by half.
